Test results reported in the NIST ThermoML archive (doi:10.1021/je060170c).

Assay: xn = mol fraction of the nth substance listed
Settings: 101 kPa, Liquid; for viscosity: Anton Paar Stabinger viscometer

Cc1cc(C)cc(C)c1 [1,3,5-trimethylbenzene] + COc1ccccc1
Settings | mass density [kg/m3] | speed of sound [m/s] | viscosity [mPa·s]
288.15 K, x2 = 0 | 869.169 | 1377.5 | 0.754
288.15 K, x2 = 0.074 | 876.661 | 1383.1 | 0.769
288.15 K, x2 = 0.181 | 887.986 | 1390.7 | 0.802
288.15 K, x2 = 0.334 | 905.232 | 1400.3 | 0.849
288.15 K, x2 = 0.4982 | 925.26 | 1408 | 0.893
288.15 K, x2 = 0.628 | 942.318 | 1420.3 | 0.965
288.15 K, x2 = 0.7512 | 959.611 | 1426.3 | 1.005
288.15 K, x2 = 0.814 | 968.893 | 1433.8 | 1.061
288.15 K, x2 = 0.875 | 978.238 | 1438.6 | 1.101
288.15 K, x2 = 0.94 | 988.554 | 1445.6 | 1.158
293.15 K, x2 = 0 | 865.072 | 1357 | 0.705
293.15 K, x2 = 0.074 | 872.553 | 1361.7 | 0.716
293.15 K, x2 = 0.181 | 883.818 | 1368.1 | 0.743
293.15 K, x2 = 0.334 | 900.968 | 1376.2 | 0.782
293.15 K, x2 = 0.4982 | 920.888 | 1383.3 | 0.819
293.15 K, x2 = 0.628 | 937.858 | 1395.1 | 0.883
293.15 K, x2 = 0.7512 | 955.065 | 1401.5 | 0.92
293.15 K, x2 = 0.814 | 964.301 | 1410 | 0.971
293.15 K, x2 = 0.875 | 973.59 | 1415.8 | 1.007
293.15 K, x2 = 0.94 | 983.844 | 1424.2 | 1.058
298.15 K, x2 = 0 | 861.062 | 1336.9 | 0.661
298.15 K, x2 = 0.074 | 868.529 | 1342.6 | 0.674
298.15 K, x2 = 0.181 | 879.758 | 1350.1 | 0.697
298.15 K, x2 = 0.334 | 896.835 | 1360 | 0.733
298.15 K, x2 = 0.4982 | 916.671 | 1370.5 | 0.767
298.15 K, x2 = 0.628 | 933.575 | 1379.4 | 0.827
298.15 K, x2 = 0.7512 | 950.712 | 1388.1 | 0.863
298.15 K, x2 = 0.814 | 959.91 | 1392.9 | 0.912
298.15 K, x2 = 0.875 | 969.162 | 1397.6 | 0.946
298.15 K, x2 = 0.94 | 979.363 | 1402.8 | 0.993
303.15 K, x2 = 0 | 856.95 | 1316.8 | 0.621
303.15 K, x2 = 0.074 | 864.41 | 1320.5 | 0.633
303.15 K, x2 = 0.181 | 875.58 | 1326.7 | 0.65
303.15 K, x2 = 0.334 | 892.57 | 1336.1 | 0.677
303.15 K, x2 = 0.4982 | 912.31 | 1347.1 | 0.706
303.15 K, x2 = 0.628 | 929.13 | 1356.2 | 0.758
303.15 K, x2 = 0.7512 | 946.19 | 1365.4 | 0.792
303.15 K, x2 = 0.814 | 955.34 | 1370.5 | 0.837
303.15 K, x2 = 0.875 | 964.55 | 1375.6 | 0.87
303.15 K, x2 = 0.94 | 974.7 | 1382.8 | 0.912
